The text below walks through data of ChEMBL document CHEMBL4004842, “Design, synthesis and biological evaluation of novel non-peptide boronic acid derivatives as proteasome inhibitors” (Eur J Med Chem, 2017).

Active and inactive are the calls of the source. The calls are words filed in the database; no cut-off is given here. Some results are limits rather than exact numbers.

As usually defined, the inhibition is the percentage by which the read-out fell short of the control. In general, IC50 refers to the point on the concentration scale where inhibition reaches its midpoint. Higher therefore signals weaker potency in that assay.

Data set [1] has as its target T1, Proteasome Macropain subunit MB1 (Homo sapiens) (UniProt P28074).
T1 sequence (whole entry): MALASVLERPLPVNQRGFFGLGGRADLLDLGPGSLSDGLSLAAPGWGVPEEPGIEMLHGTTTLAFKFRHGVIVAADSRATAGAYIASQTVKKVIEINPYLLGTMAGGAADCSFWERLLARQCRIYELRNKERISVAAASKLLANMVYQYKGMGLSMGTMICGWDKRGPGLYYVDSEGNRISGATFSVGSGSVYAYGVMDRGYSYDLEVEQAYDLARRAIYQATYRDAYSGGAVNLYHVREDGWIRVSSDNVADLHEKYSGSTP
Description: Inhibition of chymotrypsin-like activity of human 20S proteasome at 100 nM using Suc-Leu-Leu-Val-Tyr-AMC as substrate by fluorescence assay relative to control.

Data set [2] has as its target T1, Proteasome Macropain subunit MB1 (Homo sapiens). Description: Inhibition of chymotrypsin-like activity of human 20S proteasome at 1 uM using Suc-Leu-Leu-Val-Tyr-AMC as substrate by fluorescence assay relative to control.
Data set [3] deals with T2, Proteasome Macropain subunit MB1 (Homo sapiens, UniProt P28074).
T2 sequence (P28074 whole entry): T1 sequence (whole entry)
Description: Inhibition of chymotrypsin-like activity of human LCL-derived 20S proteasome using Suc-LLVY-AMC as substrate preincubated with enzyme followed by substrate addition measured after 30 mins by fluorescence assay.

In another data set the test system is HL-60. Description: Antiproliferative activity against human HL60 cells after 72 hrs by SRB assay. Format: functional, cell-based. The following applies: HL-60, 72 h. Background: In SRB staining, fixed cells bind dye roughly in proportion to their protein.
Data set [4] is described as follows: Metabolic stability in Sprague-Dawley rat liver microsomes assessed as compound remaining at 20 uM preincubated for 5 mins followed by NADPH addition measured after 20 mins by HPLC analysis. In kind it is ADME, microsome. The following applies: read-out: Stability. (In general: Microsomes from liver hold many membrane-bound enzymes, among them those of drug oxidation.)

For a further data set, the system named is A549. Description: Antiproliferative activity against human A549 cells after 72 hrs by SRB assay. Format: functional, cell-based. The note with it: A549, 72 h.
Another data set deals with MDA-MB-231. Description: Antiproliferative activity against human MDA-MB-231 cells after 72 hrs by SRB assay. In kind it is functional, cell-based. The following applies: MDA-MB-231, 72 h.
Another data set has as its system A2780. Description: Antiproliferative activity against human A2780 cells after 72 hrs by SRB assay. In kind it is functional, cell-based. The following applies: A2780, 72 h.
In another data set the test system is RPMI-8226. Description: Antiproliferative activity against human RPMI8226 cells after 72 hrs by SRB assay. The following applies: RPMI-8226, 72 h. In kind it is functional, cell-based.
Data set [5] addresses T2, Proteasome Macropain subunit MB1. Description: Inhibition of chymotrypsin-like activity of human 20S proteasome using Suc-Leu-Leu-Val-Tyr-AMC as substrate by fluorescence assay.
The species entered for a further data set is Homo sapiens. Description: Inhibition of 20S proteasome activity in human MDA-MB-231 cells assessed as accumulation of ubiquitinated proteins at 50 nM by Western blot method. Format: cell-based. On the technique in general: Immunoblotting shows a protein as a band on a membrane.
A short description of data set [6]: Drug metabolism in human plasma administered as iv bolus dose after 30 mins. Format: ADME, organism-based. The note with it: read-out: Drug metabolism.

For the molecule `CC1=C(N[C@@H](C)C(=O)N[C@@H](CC(C)C)B(O)O)C(=O)c2ccccc2C1=O`, the inhibition in [1] was 52.3%; in [2] it was > 50%.
In turn, `C[C@@H](CO)NC(=O)c1ccccc1O` had a half-maximal inhibitory concentration (IC50) in data set [3] of 24800 nM.
With `CC(C)C[C@H](NC(=O)[C@H](Cc1ccccc1)NC(=O)c1cnccn1)B(O)O` [BORTEZOMIB], the IC50 worked out at 3.2 nM in the data set on HL-60; 2.5 nM in the data set with A549; 6.5 nM with MDA-MB-231; 28.9 nM in the data set with A2780; 6.7 nM with RPMI-8226. Moreover, the remaining at 20 min, 20 µM in [4] worked out at 44%.
On to `CC1=C(N[C@@H](CC(C)C)C(=O)N[C@@H](CC(C)C)B(O)O)C(=O)c2ccccc2C1=O`, for which the inhibition in [1] is 31.4%; in data set [2] it was > 50%.
The like results for `CC1=C(NCC(=O)N[C@@H](CC(C)C)B(O)O)C(=O)c2ccccc2C1=O` were, in that order, 65.9% and > 50%.
The like results for `CC1=C(N[C@H](C(=O)N[C@@H](CC(C)C)B(O)O)C(C)C)C(=O)c2ccccc2C1=O` were, in that order, 42.3% and > 50%.
Turning to `CC1=C(N[C@@H](Cc2ccccc2)C(=O)N[C@@H](CC(C)C)B(O)O)C(=O)c2ccccc2C1=O`, the midpoint of inhibition in [5], the IC50, lay at 25.9 nM. The inhibition in [1] was 84.7%; in data set [2] it was > 50%.
The like results for `CC(C)C[C@H](NC(=O)[C@H](CC(C)C)NC1=CC(=O)c2ccccc2C1=O)B(O)O` were, in that order, 44.3 nM, 79.8% and > 50%.
With `CC(C)C[C@H](NC(=O)CNC1=CC(=O)c2ccccc2C1=O)B(O)O`, the IC50 in data set [5] stood at 23.2 nM; in the data set on HL-60, 3590 nM; in the data set on A549, 2890 nM; with MDA-MB-231, 1250 nM; with A2780 it was 3700 nM; with RPMI-8226, 3460 nM. For the same molecule, the inhibition entry in the data set filed under Homo sapiens is “Active”. The inhibition in [1] is 84.9%; in [2], > 50%.
Take `CC(C)C[C@H](NC(=O)CNC1=C(Cl)C(=O)c2ccccc2C1=O)B(O)O`: the results for the inhibition in data set [1] and in data set [2] were 67.7% and > 50%, respectively.
For `CC(C)C[C@H](NC(=O)[C@@H](NC1=CC(=O)c2ccccc2C1=O)C(C)C)B(O)O` the same measures were 69.2% and > 50%.
In turn, `O=CN(O)CCC[C@@H](NC(=O)[C@H](CO)NC(=O)[C@@H]1COC(c2ccccc2O)=N1)C(=O)NCCC(=O)N[C@@H]1CCCN(O)C1=O` returned an IC50 in data set [3] of 39400 nM.
As to `CC(C)C[C@H](NC(=O)[C@H](C)NC1=C(Cl)C(=O)c2ccccc2C1=O)B(O)O`, the inhibition was 64.8% in data set [1] and > 50% in data set [2].
The like results for `CC(C)C[C@H](NC(=O)[C@@H](NC1=C(Cl)C(=O)c2ccccc2C1=O)C(C)C)B(O)O` were, in that order, 47.4% and > 50%.
For `CC(C)C[C@H](NC(=O)[C@H](C)NC1=CC(=O)c2ccccc2C1=O)B(O)O` the same measures were 67.5% and > 50%.
`CC(C)C[C@H](NC(=O)[C@H](Cc1ccccc1)NC1=C(Cl)C(=O)c2ccccc2C1=O)B(O)O` registered a half-inhibitory concentration (IC50) in data set [5] of 24.6 nM. The inhibition was 86.7% in data set [1] and > 50% in data set [2].
In the case of `CC(C)C[C@H](NC(=O)[C@H](Cc1ccccc1)NC1=CC(=O)c2ccccc2C1=O)B(O)O`, the IC50 was 11.4 nM in data set [5]; 1110 nM in the data set on HL-60; 679 nM in the data set with A549; 38.3 nM with MDA-MB-231; 470 nM with A2780; 1090 nM in the data set with RPMI-8226. Besides, the inhibition entry in the data set filed under Homo sapiens was “Active”. Further, the inhibition was 90.3% in data set [1] and > 50% in [2]. Further, in [4], the remaining at 20 min, 20 µM worked out at 60%.
As for `CC(C)C[C@H](NC(=O)CNC(=O)c1cc(Cl)ccc1Cl)B(O)O` [IXAZOMIB], in data set [6], the metabolised at 0.5 h is 90%.
For the molecule `CC(C)C[C@H](NC(=O)[C@H](CC(C)C)NC1=C(Cl)C(=O)c2ccccc2C1=O)B(O)O`, the values for the inhibition in [1] and in [2] were 43.5% and > 50%, respectively.
